Where a SMILES comes first, the peptide text is derived from it. Bridges are numbered along the chain shown (N, C = ends). [ ]: non-standard residue; d: D form. 2Nal = N[C@@H](Cc1ccc2ccccc2c1)C(=O)O; d2Nal = N[C@H](Cc1ccc2ccccc2c1)C(=O)O; Lys(Et2) = CCN(CC)CCCC[C@H](N)C(=O)O; Lys(iPr) = CC(C)NCCCC[C@H](N)C(=O)O
Columns and labels:
GRP Receptor = biological target: T1, GRP Receptor (Rattus norvegicus, UniProt P52500); assay: Amylase release from rat pancreatic acini; format: cell-based; conditions: for Rat Pancreatic Acini Amylase Release Alone (10µM): analog 10 µM alone, no-additive control 4 ± 1; for Rat Pancreatic Acini Amylase Release Plus Bn(0.3 nM): analog 10 µM plus Bn 0.3 nM, Bn without analog 15 ± 1
T1 construct: from tissue; host or cells: dispersed pancreatic acini

rat NMB receptor = biological target: T2, rat NMB receptor (Rattus norvegicus, UniProt P24053); assay: Binding of 125I-[D-Tyr0]NMB to NMB-R transfected BALB 3T3 cells; conditions: for fold by which cyclo SS-octa was more potent than the analog: inhibition of ^125I-[Tyr^0]NMB binding to NMB-R transfected cells; for decrease in NMB receptor affinity compared with #1: structure-function comparison of Table 1 values
T2 construct: a full length NMB-preferring bombesin receptor clone generated from rat esophagus; expressed in transfected cells; host or cells: BALB 3T3 cells
T2 sequence (P24053 1-390): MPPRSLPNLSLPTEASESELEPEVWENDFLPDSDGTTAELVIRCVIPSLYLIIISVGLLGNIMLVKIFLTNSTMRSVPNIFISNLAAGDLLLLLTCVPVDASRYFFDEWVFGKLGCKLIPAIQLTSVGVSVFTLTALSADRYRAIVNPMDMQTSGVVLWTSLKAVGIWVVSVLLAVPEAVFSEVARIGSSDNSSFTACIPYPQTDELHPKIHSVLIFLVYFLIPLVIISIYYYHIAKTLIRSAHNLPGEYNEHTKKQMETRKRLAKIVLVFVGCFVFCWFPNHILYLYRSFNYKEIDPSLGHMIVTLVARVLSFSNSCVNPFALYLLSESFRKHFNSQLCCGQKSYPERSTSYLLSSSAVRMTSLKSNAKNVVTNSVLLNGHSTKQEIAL
Procedure: (§1) Cells were passaged every 3-4 days at confluence, using 0.1% trypsin in 1 mM EDTA. Rat glioblastoma C-6 tumor cells were maintained similarly and were passaged weekly at confluence. Both cell lines were cultured at 37°C in a 5% CO2 atmosphere. Rat AR 42J pancreatic acinar cells were cultured in Dulbecco's modified Eagle's medium (DMEM) without antibiotics and supplemented with 10% (vol/vol) fetal calf serum. The incubation atmosphere consisted of 10% CO2-90% humidified air at 37°C.

NMB Receptor = biological target: T3, NMB Receptor (Rattus norvegicus, UniProt P24053); assay: [3H]inositol phosphates (IP) in NMB-R transfected cells; format: cell-based; conditions: for NMB-R Transfected Cells [^3H]IP Alone (10 µ M): analog 10 µM alone, no-additive control 13 ± 3; for NMB-R Transfected Cells [^3H]IP Plus NMB (3 nM): analog 10 µM plus NMB 3 nM, NMB without analog 186 ± 58; for effect on NMB-stimulated increase in [^3H]IP: NMB-R transfected cells, 3 nM NMB, peptide 10 µM
T3 construct: a full length NMB-preferring bombesin receptor clone generated from rat esophagus; expressed in transfected cells; host or cells: BALB 3T3 cells
T3 sequence (P24053 1-390): T2 sequence (P24053 1-390)
Procedure: as §1, with “As described previously [Wada, E., et al. Neuron 6:421 (1991)], BALB 3T3 cells expressing a stably transfected rat NMB receptor (NMB-R transfected cells) were obtained using calcium phosphate precipitation of a full length NMB-preferring bombesin receptor clone generated from rat esophagus and subcloned into a modified version of the pCD2 plasmid. Cells” for “Cells”
Total phosphoinositides in C-6 cells and in NMB-R transfected cells were determined as described previously, with minor modifications [Benya, R. V. et al. Mol. Pharmacol. 42:1058 (1992); and Wang, L-H. et al. Biochem. J. 286:641 (1992)]. Cells were grown to confluence in 24-well plates and then loaded with 100 µCi/ml myo-[2-^3H]inositol in Dulbecco's modified essential medium with 2% fetal bovine serum at 37°C for 48 hrs. Cells were washed and incubated in phosphoinositide buffer (standard buffer additionally containing 10 mM LiCl, 20 mM HEPES, 2 mM CaCl2, 2% BSA, and 1.2 mM MgSO4) for 15 min and then for 60 min at 37°C with agonists at various concentrations or with 3 nM NMB (a half-maximal effective concentration) and possible antagonists at different concentrations. Reactions were halted using ice-cold 1% HCl in methanol, and the inositol phosphates (IP) were isolated as described previously [Bologna, M. et al. Cancer 63:1714 (1989); and Endo, T. et al. J. Endocrinol. 131:313 (1991)]. Briefly, after loading of the anion exchange column, free [^3H]glycerophosphorylinositol was removed by washing with 5 mM disodium tetraborate in 60 mM sodium formate. Total [^3H]inositol phosphates were then eluted using 100 mM formic acid in 1.0 M ammonium formate as described previously [Benya, R. V. et al. Mol. Pharmacol. 42:1058 (1992); and Wang, L-H. et al. Biochem. J. 286:641 (1992)].

T1 sequence (P52500 whole entry): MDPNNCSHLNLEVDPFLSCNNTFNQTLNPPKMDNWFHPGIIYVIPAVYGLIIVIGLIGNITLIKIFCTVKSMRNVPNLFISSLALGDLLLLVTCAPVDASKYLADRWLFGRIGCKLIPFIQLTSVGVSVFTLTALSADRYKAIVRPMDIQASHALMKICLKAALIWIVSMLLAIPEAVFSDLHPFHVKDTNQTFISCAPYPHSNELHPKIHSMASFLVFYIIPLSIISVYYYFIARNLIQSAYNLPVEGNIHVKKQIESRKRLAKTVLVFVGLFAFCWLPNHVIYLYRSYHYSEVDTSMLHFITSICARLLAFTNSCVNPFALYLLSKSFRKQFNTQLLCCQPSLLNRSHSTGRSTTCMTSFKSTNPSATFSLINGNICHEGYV

SMILES	Rat Pancreatic Acini Amylase Release Alone (10µM) (GRP Receptor)	Rat Pancreatic Acini Amylase Release Plus Bn(0.3 nM) (GRP Receptor)	fold by which cyclo SS-octa was more potent than the analog (rat NMB receptor)	NMB-R Transfected Cells [^3H]IP Alone (10 µ M) (NMB Receptor)	NMB-R Transfected Cells [^3H]IP Plus NMB (3 nM) (NMB Receptor)	decrease in NMB receptor affinity compared with #1 (rat NMB receptor)	fold greater affinity for the NMB than the GRP receptors (rat NMB receptor; NMB-R transfected cells versus GRP receptors on rat pancreatic acini)	effect on NMB-stimulated increase in [^3H]IP (NMB Receptor)
CC(C)[C@@H]1NC(=O)[C@H](CCCCN)NC(=O)[C@@H](Cc2c[nH]c3ccccc23)NC(=O)[C@H](Cc2ccc(O)cc2)NC(=O)[C@@H](NC(=O)[C@H](N)Cc2c[nH]c3ccccc23)CSSC[C@@H](C(=O)N[C@@H](Cc2ccc3ccccc3c2)C(N)=O)NC1=O [Analog #12, [D-Trp^1]-cyclo SS-octa] (H-[dW]CY[dW]KVC[2Nal]-NH2; disulfide 2-7; N-terminus assumed)	3 ± 1 % total	13 ± 1 % total	9 fold	9 ± 2 dpm x 10^3	43 ± 2 dpm x 10^3			
CCN(CC)CCCC[C@@H]1NC(=O)[C@@H](Cc2c[nH]c3ccccc23)NC(=O)[C@H](Cc2ccc(O)cc2)NC(=O)[C@@H](NC(=O)[C@H](N)Cc2ccccc2)CSSC[C@@H](C(=O)N[C@@H](Cc2ccc3ccccc3c2)C(N)=O)NC(=O)[C@H]([C@@H](C)O)NC1=O [Analog #16, [D-Phe^1, Lys(diEt)^5, Thr^6] cyclo SS-octa] (H-[dF]CY[dW][Lys(Et2)]TC[2Nal]-NH2; disulfide 2-7; N-terminus assumed)	5 ± 1 % total	12 ± 1 % total	18 fold	11 ± 2 dpm x 10^3	73 ± 15 dpm x 10^3			
CC(C)[C@@H]1NC(=O)[C@H](CCCCN)NC(=O)[C@@H](Cc2c[nH]c3ccccc23)NC(=O)[C@H](Cc2ccc(O)cc2)NC(=O)[C@@H](NC(=O)[C@H](N)Cc2ccc3ccccc3c2)CSSC[C@@H](C(=O)N[C@H](Cc2ccc3ccccc3c2)C(N)=O)NC1=O [Analog #8, [D-Nal^8]-cyclo SS-octa] (H-[d2Nal]CY[dW]KVC[d2Nal]-NH2; disulfide 2-7; N-terminus assumed)	2 ± 1 % total	14 ± 1 % total	9 fold	10 ± 3 dpm x 10^3	67 ± 13 dpm x 10^3	6 fold		
CC(C)[C@@H]1NC(=O)[C@H](CCCCN)NC(=O)[C@@H](Cc2ccc3ccccc3c2)NC(=O)[C@H](Cc2ccc(O)cc2)NC(=O)[C@@H](NC(=O)[C@H](N)Cc2ccc3ccccc3c2)CSSC[C@@H](C(=O)N[C@@H](Cc2ccc3ccccc3c2)C(N)=O)NC1=O [Analog #17, [D-Nal^4]-cyclo SS-octa] (H-[d2Nal]CY[d2Nal]KVC[2Nal]-NH2; disulfide 2-7; N-terminus assumed)	4 ± 2 % total	19 ± 1 % total	2 fold	12 ± 4 dpm x 10^3	15 ± 2 dpm x 10^3	almost no effect on affinity	> 100 fold	completely inhibited
CC(C)[C@@H]1NC(=O)[C@H](CCCCN)NC(=O)[C@@H](Cc2c[nH]c3ccccc23)NC(=O)[C@H](Cc2ccc(O)cc2)NC(=O)[C@@H](NC(=O)[C@H](N)Cc2ccccc2)CSSC[C@@H](C(=O)N[C@@H](Cc2ccc3ccccc3c2)C(N)=O)NC1=O [Analog #4, [D-Phe^1]-cyclo SS-octa] (H-[dF]CY[dW]KVC[2Nal]-NH2; disulfide 2-7; N-terminus assumed)	4 ± 2 % total	14 ± 1 % total	4 fold	13 ± 1 dpm x 10^3	33 ± 4 dpm x 10^3			
CC(C)[C@@H]1NC(=O)[C@H](CCCCN)NC(=O)[C@@H](Cc2c[nH]c3ccccc23)NC(=O)[C@H](Cc2ccc(O)cc2)NC(=O)[C@@H](NC(=O)[C@@H](N)Cc2ccc3ccccc3c2)CSSC[C@@H](C(=O)N[C@H](Cc2ccc3ccccc3c2)C(N)=O)NC1=O [Analog #9, [Nal^1,D-Nal^8]-cyclo SS-octa] (H-[2Nal]CY[dW]KVC[d2Nal]-NH2; disulfide 2-7; N-terminus assumed)	3 ± 1 % total	16 ± 1 % total	6 fold	8 ± 2 dpm x 10^3	28 ± 6 dpm x 10^3			
C[C@@H](O)[C@H](NC(=O)[C@@H]1CSSC[C@H](NC(=O)[C@H](N)Cc2ccc3ccccc3c2)C(=O)N[C@@H](Cc2ccccc2)C(=O)N[C@H](Cc2c[nH]c3ccccc23)C(=O)N[C@@H](CCCCN)C(=O)N[C@@H]([C@@H](C)O)C(=O)N1)C(N)=O [Analog #18, [Phe^3, Thr^6,8]-cycle SS-octa] (H-[d2Nal]CF[dW]KTCT-NH2; disulfide 2-7)				11 ± 1 dpm x 10^3	143 ± 11 dpm x 10^3			had no effect
CC(C)[C@@H]1NC(=O)[C@H](CCCCN)NC(=O)[C@@H](Cc2c[nH]c3ccccc23)NC(=O)[C@H](Cc2ccc(O)cc2)NC(=O)[C@H](NC(=O)[C@H](N)Cc2ccc3ccccc3c2)CSSC[C@@H](C(=O)N[C@@H](Cc2ccc3ccccc3c2)C(N)=O)NC1=O [Analog #10, [D-Cys^2]-cyclo SS-octa] (H-[d2Nal][dC]Y[dW]KVC[2Nal]-NH2; disulfide 2-7; N-terminus assumed)	3 ± 1 % total	16 ± 1 % total	6 fold	10 ± 3 dpm x 10^3	4 ± 2 dpm x 10^3	5 fold		completely inhibited
CC(C)NCCCC[C@@H]1NC(=O)[C@@H](Cc2c[nH]c3ccccc23)NC(=O)[C@H](Cc2ccc(O)cc2)NC(=O)[C@@H](NC(=O)[C@H](N)Cc2ccccc2)CSSC[C@@H](C(=O)N[C@@H](Cc2ccc3ccccc3c2)C(N)=O)NC(=O)[C@H]([C@@H](C)O)NC1=O [Analog #15, [D-Phe^1, Lys(iPr)^5, Thr^6]-cyclo SS-octa] (H-[dF]CY[dW][Lys(iPr)]TC[2Nal]-NH2; disulfide 2-7; N-terminus assumed)	4 ± 2 % total	13 ± 2 % total	9 fold	11 ± 1 dpm x 10^3	67 ± 7 dpm x 10^3			

— EP0606463B1, “NEUROMEDIN B RECEPTOR ANTAGONISTS” (The Administrators of The Tulane Educational Fund, priority 1992, dated 1994)
